Test results reported in patent US20090117115A1 (priority 2006, published 2009).

What was measured:
[1] = molecular target: gp120 of HIV-1 strain BR004 (HIV-1, strain BR004)
[2] = molecular target: gp120 of HIV-1 strain ZA009 (HIV-1, strain ZA009)
[3] = molecular target: gp120 of HIV-1 strain SF162 (HIV-1, strain SF162)
[4] = test system: gp120 hydrolysis by salivary IgA and serum IgA; assay type: biochemical, human

Compound: MAb b12 (antibody)
- IC80, HIV neutralization (% decrease of p24; PHA-stimulated PBMC hosts) [1]: > 20 µg/mL
- IC80, HIV neutralization (% decrease of p24; PHA-stimulated PBMC hosts) [2]: > 20 µg/mL
- IC80, HIV neutralization (% decrease of p24; PHA-stimulated PBMC hosts) [3]: 14.1 µg/mL

Compound: O=C(O)CN(CCN(CC(=O)O)CC(=O)O)CC(=O)O [EDTA]
- inhibition of gp120 hydrolysis by serum and salivary IgA [4]: did not detectably inhibit

Compound: pepstatin A
- inhibition of gp120 hydrolysis by serum and salivary IgA [4]: did not detectably inhibit

Compound: c1cnc2c(c1)ccc1cccnc12 [1,10 phenanthroline]
- inhibition of gp120 hydrolysis by serum and salivary IgA [4]: did not detectably inhibit

Compound: NC(=O)CI [iodoacetamide]
- inhibition of gp120 hydrolysis by serum and salivary IgA [4]: did not detectably inhibit
